Assay results published in patent EP4553077A1 (Kinoteck Therapeutics Co., Ltd, priority 2022, dated 2024).
Each block holds one compound with its values, some of them ahead of it.

How the values were obtained:
[1] = Human liver microsomes stability test; type: in vitro ADME; details: human liver microsomes 0.5 mg/mL, compound 1.0 µM
Description: Human liver microsomes stability test was performed by co-incubating compounds with human liver microsomes in vitro. Firstly, a 10 mM stock solution of the test compound in DMSO solvent was prepared, and then the compound was diluted with methanol to a 0.15 mM working solution. A certain amount PBS, 12mM MgCl2, human liver microsomes (Corning), and compound working solution were mixed to achieve a compound concentration of 1.0 µM, a human liver microsome concentration of 0.5 mg/mL, and the MgCl2 concentration of 3 mM in the reaction system. A deep well plate was taken, 270 µL microsomal buffer mixture solution was added to each well, and then 30 µL preheated 10 mM NADPH solution was added to initiate the reaction, and it was incubated at 37 °C. At 0, 5, 15, 30, and 60 min of incubation, 200 µL methanol: acetonitrile = 1: 1 containing an internal standard was added to the corresponding well to terminate the reaction. After the reaction was terminated at the last 60 min, the deep well plate was subjected to vortex vibration for 5 min (600 rpm/min), and then centrifugated for 10 min. After centrifugation, the supernatant was taken, and purified water was added at a 1:1 ratio for LC-MS/MS detection, and the peak area ratio of the compound to the internal standard at each time point was obtained, and the peak area ratio of the compound at 5, 15, 30, and 60 min was compared with the peak area ratio at 0 minute to calculate the remaining percentage of the compound at each time point, and T1/2 was calculated using Graphpad 7 software. Table 2 Results of human liver microsomes stability test

Ba/F3-TEL-FGFR2 = Ba/F3-TEL-FGFR2 (Homo sapiens, UniProt P21802+P41212); assay: Cell viability (proliferation inhibition) of Ba/F3 cells, CellTiter Glo; details: read-out: Ba/F3 cell FGFR2 (IC50 nM), 72 h
Ba/F3-TEL-FGFR1 = Ba/F3-TEL-FGFR1 (Homo sapiens, UniProt P11362+P41212); assay: as above; details: read-out: Ba/F3 cell FGFR1 (IC50 nM), 72 h
Ba/F3-TEL-FGFR3 = Ba/F3-TEL-FGFR3 (Homo sapiens, UniProt P22607+P41212); assay: as above; details: read-out: Ba/F3 cell FGFR3 (IC50 nM), 72 h
CYP2D6 = CYP2D6 (Homo sapiens, UniProt P10635); assay: Cytochrome P450 inhibition in human liver microsomes
Description: (§3) Preparation of positive control inhibitor and compound working solution: 16 µL inhibitor stock solution or compound stock solution for each CYP subtype were taken and added to 24 µL DMSO. Then, they were diluted gradually three times with diluent to obtain different concentrations of test sample/positive control inhibitor working solution (7 concentrations each except for blank)
(§4) Preparation of liver microsomal working solution: 300 µL human liver microsomes (20.0 mg/mL) was taken and added to 29700 µL PBS and mixed well, and the concentration of the prepared human liver microsomal working solution was 0.200 mg/mL.
(§5) Preparation of 4 x NADPH working solution: A certain weight of NADPH tetrasodium salt was weighted and dissolved to a suitable volume of PBS to obtain NADPH working solution, with a concentration of 8.00 mM.
(§6) Preparation of test sample group working solution: The human liver microsomal working solution was divided into 96 well plates at 796 µL per well, and then 4 µL test sample working solution was added.
(§7) Preparation of positive control group working solution: The human liver microsomal working solution was divided into 96 well plates at 199 µL per well, and then 1 µL positive control inhibitor working solution was added.
(§8) Blank solvent working solution preparation: The human liver microsomal working solution was divided into 96 well plates at 199 µL per well, and then 1 µL DMSO was added.
(§9) (a) 30 µL test sample/positive control inhibitor working solution or 30 µL blank solvent working solution per well were transferred into a 96 well plate, and 15 µL substrate working solution of different enzyme subtypes transferred into each well, and mixed evenly. (b) The above incubation plates and 4 x NADPH working solution were preheated at 37 °C for 5 min. (c) 15 µL preheated 4 × NADPH working solution per well was transferred into the incubation plate, and the reaction initiated, and continued to be incubated at 37 °C. The incubation time is as follows:
(§10) (d) After the reaction time was reached, 180 µL termination solution was added to terminate the reaction. […] (f) After centrifugation, 80 µL supernatant was taken and added to 120 µL ultrapure water, and after it was mixed evenly, LC-MS/MS was used to analyze the metabolites of the probe substrate.

CYP3A4 = CYP3A4 (Homo sapiens, UniProt P08684); assay: as above
Description: as §3, §4, §5, §6, §7, §8, §9, §10

[2] = Rat liver cells metabolic stability; type: in vitro ADME; details: rat liver cells 0.5 × 10^6 cells/mL
Description: Test compound and control drug verapamil powder were prepared into […] stock solution using DMSO, and they were diluted with 50% acetonitrile/50% water to 100 µM working solution before use.
• 1) 49.5 mL Williams E Medium and 0.5 mL glutaMAX were mixed as incubation medium. The liver cell resuscitation solution and incubation solution were preheated in a 37 °C water bath for at least 15 min before use. • 2) A tube of liver cells stored at ultra-low temperature was taken and ensured that they remain in a low-temperature frozen state before resuscitation. The liver cells were placed quickly in a 37 °C water bath and shaken gently until all ice crystals were dispersed. • 3) The contents of the liver cells tubes were poured into a centrifuge tube containing 50 mL of resuscitation medium, and they were centrifuged at 100 g for 10 min. After centrifugation, the resuscitation medium was aspirated, and sufficient incubation medium was added to obtain a cell suspension with a cell density of approximately 1.0 × 10^6 cells/mL. • 4) AO/PI staining was used to count liver cells and determine viable cell density, the survival rate of liver cells must be greater than 75%. The liver cell suspension was diluted with incubation medium to a viable cell density of 0.5 × 10^6 cells/mL.
• 1) 198 µL live cell suspension was transferred to a 96 well deep well plate, and the deep well plate was placed on a vortex and preheat in the incubator for 10 min. • 2) 2 µL 100 µM test compound or positive control compound was added to each well for reaction initiation, and the deep well plate was placed back on the incubator vortex. • 3) The incubation plate was placed into the incubator for incubation. 25 µL suspension was taken at 0.5, 15, 30, 60, 90, and 120 min, and 6-fold (150 µL) acetonitrile containing internal standard quencher (100 nM alprazolam, 200 nM caffeine, and 100 nM toluenesulfonylbutamide) was added to a new 96 well plate to terminate the reaction. The plate was vortexed for 5 min and centrifuged at 3220 rpm and 4 °C for 45 min to precipitate the protein. 100 µL of supernatant was transferred to the sample plate, and 100 µL pure water was added and mixed well for UPLC-MS/MS analysis. All incubation systems were conducted in a dual parallel manner.
All data was calculated using Microsoft Excel software. Peak area was detected by extracting ion chromatogram. In vitro half-life (T1/2) and in vitro clearance rate (in µL/min/10^6 cells) of the parent drug were detected by linearly fitting of the natural logarithm of the […] percentage of the parent drug versus time. Table 6 Results of rat liver cell stability test

A204 cells = assay: Proliferation inhibition, CCK-8 colorimetric method; type: cell-based; details: Homo sapiens, 72 h
Description: (§1) CCK-8 (Bimake/B34304) colorimetric method was used to detect the in vitro proliferation inhibitory effect of compounds on suspended or adherent cells in this experiment. The specific experimental steps were as follows: • 1) Cell plating: SNU16 and A204 tumor cells (cells from Shanghai Institute of Organic Chemistry, Chinese Academy of Sciences) in the logarithmic growth phase were digested and centrifuged for trypan blue counting, and the cells were seeded into a transparent 96 well plate at a density of 4000 cells/100 µ 1/well. […] The test compound and control compound stock solution were diluted with the corresponding culture medium required for cell culture (with or without solvent DMSO) to obtain a series of working solutions, with concentrations of twice the final concentration. The solvent DMSO contents in each concentration group were consistent with that of the solvent control group. The final concentration of A204 cells started at 10 µM and was diluted twice.
(§2) Calculation of cell survival rate: Cell survival rate (%)=[(As-Ac)/(Ab-Ac)] × 100%] (As: experimental well; Ab: Solvent control well; Ac: Blank well).

SNU16 cells = assay: as above; type: cell-based; details: Homo sapiens, SNU-16, 72 h
Description: as §1, §2

[3] = Pharmacokinetic test in rats; type: in vivo, male SD rats; details: rat, plasma, oral gavage administration, 10 mg/kg
Description: Rat pharmacokinetic experiments were performed using male SD rats, 180-220g, provided by Beijing Vital River Laboratory Animal Technology Co., Ltd. 3 rats that were fasted overnight were taken, and administered orally by gavage (10 mg/kg). Blood samples were collected before administration, as well as 5, 15, 30 min and 1, 2, 4, 6, 8, 24 h after administration; another 3 rats were taken and administered intravenously (1 mg/kg), blood samples were collected before administration, as well as 5, 15, 30 min and 1, 2, 4, 6, 8, 24 h after administration. Blood sample was centrifuged at 6800g, 2-8 °C for 6 min, and plasma was collected, and stored at -80 °C. Plasma of each time point was taken, 10 times the amount of 50% methanol acetonitrile solution containing internal standard was added, and mixed by vortex for 5 min, centrifuged at 18000 rpm at 4 °C for 10 min, and the supernatant was taken directly for LC-MS/MS analysis. The main pharmacokinetic parameters were analyzed using WinNonlin8.2 software for non compartmental model analysis. Table 3: pharmacokinetic test in rats results of test compounds

CYP1A2 = target: T1, CYP1A2 (Homo sapiens, UniProt P05177); assay: Cytochrome P450 inhibition in human liver microsomes
T1 sequence (P05177 1-516): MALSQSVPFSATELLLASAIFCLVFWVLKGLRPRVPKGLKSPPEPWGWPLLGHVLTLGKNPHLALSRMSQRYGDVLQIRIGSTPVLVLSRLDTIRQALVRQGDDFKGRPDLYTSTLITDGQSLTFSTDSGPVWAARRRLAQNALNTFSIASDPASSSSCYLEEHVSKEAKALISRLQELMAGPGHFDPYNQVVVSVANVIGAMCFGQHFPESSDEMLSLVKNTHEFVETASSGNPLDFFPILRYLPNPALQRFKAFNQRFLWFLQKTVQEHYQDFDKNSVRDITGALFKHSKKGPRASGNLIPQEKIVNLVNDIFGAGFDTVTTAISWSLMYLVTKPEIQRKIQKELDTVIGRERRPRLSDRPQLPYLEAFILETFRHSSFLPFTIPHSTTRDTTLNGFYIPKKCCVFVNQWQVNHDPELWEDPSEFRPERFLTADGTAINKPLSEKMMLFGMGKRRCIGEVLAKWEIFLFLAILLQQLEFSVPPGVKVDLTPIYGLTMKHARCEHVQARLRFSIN
Description: as §3, §6, §7, §8
(§11) (a) 30 µL test sample/positive control inhibitor working solution or 30 µL blank solvent working solution per well were transferred into a 96 well plate, and 15 µL substrate working solution of different enzyme subtypes transferred into each well, and mixed evenly. (b) The above incubation plates and 4 x NADPH working solution were preheated at 37 °C for 5 min. (c) 15 µL preheated 4 × NADPH working solution per well was transferred into the incubation plate, and the reaction initiated, and continued to be incubated at 37 °C.
as §10

CYP2C9 = CYP2C9 (Homo sapiens, UniProt P11712); assay: as above
Description: as §3, §6, §7, §8, §11, §10

CYP2C19 = CYP2C19 (Homo sapiens, UniProt P33261); assay: as above
Chain of CYP2C19 (P33261 whole entry): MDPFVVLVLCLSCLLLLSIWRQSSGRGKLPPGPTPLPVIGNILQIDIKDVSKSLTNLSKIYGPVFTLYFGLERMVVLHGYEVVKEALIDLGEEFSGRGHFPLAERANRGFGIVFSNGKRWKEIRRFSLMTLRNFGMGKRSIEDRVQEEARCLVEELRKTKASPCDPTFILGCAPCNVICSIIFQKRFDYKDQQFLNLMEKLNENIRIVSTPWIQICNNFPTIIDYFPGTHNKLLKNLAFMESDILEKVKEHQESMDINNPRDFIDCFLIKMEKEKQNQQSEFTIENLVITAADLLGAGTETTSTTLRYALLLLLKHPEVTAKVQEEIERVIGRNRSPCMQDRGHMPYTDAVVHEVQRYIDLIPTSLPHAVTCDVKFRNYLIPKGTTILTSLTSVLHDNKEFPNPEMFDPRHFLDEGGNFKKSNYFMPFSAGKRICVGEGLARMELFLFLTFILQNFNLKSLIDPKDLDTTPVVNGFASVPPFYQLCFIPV
Description: as §3, §6, §7, §8, §11, §10

Chain of CYP2D6 (P10635 whole entry): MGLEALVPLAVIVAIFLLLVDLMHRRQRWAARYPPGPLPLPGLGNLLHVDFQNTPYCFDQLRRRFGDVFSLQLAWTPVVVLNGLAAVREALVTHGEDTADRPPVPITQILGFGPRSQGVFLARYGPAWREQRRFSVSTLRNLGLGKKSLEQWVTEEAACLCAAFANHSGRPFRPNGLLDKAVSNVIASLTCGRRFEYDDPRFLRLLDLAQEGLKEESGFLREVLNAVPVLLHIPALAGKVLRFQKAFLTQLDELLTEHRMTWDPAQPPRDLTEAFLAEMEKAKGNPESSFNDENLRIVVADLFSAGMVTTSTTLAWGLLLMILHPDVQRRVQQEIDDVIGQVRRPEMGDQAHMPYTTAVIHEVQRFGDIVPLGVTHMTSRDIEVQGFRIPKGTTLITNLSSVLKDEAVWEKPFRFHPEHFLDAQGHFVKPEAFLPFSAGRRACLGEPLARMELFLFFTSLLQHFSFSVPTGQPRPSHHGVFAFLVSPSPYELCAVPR
Chain of Ba/F3-TEL-FGFR1 (P11362 478-767 limits assumed, one chain of several): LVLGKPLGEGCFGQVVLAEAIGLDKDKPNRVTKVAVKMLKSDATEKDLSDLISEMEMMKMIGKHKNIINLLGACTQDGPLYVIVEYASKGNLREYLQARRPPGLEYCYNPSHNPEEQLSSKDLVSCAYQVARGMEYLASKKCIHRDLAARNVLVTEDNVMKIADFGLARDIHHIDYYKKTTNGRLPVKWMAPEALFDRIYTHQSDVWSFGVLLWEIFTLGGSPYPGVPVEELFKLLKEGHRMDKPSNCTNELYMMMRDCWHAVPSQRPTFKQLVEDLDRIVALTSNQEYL
Chain of CYP3A4 (P08684 whole entry): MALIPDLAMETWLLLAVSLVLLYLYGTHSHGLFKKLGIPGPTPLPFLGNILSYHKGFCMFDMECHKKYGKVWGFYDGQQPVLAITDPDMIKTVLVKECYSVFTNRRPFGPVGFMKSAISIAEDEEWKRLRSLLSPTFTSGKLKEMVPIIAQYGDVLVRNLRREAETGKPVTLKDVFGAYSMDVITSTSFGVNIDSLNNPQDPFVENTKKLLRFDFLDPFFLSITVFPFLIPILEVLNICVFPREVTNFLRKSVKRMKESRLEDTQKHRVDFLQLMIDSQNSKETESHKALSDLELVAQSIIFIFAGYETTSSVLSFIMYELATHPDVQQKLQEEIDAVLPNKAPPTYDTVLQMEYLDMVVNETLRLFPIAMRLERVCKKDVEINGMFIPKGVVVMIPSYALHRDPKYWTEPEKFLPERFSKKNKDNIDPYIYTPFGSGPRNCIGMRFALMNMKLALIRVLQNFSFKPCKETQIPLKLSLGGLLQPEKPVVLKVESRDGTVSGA
Chain of Ba/F3-TEL-FGFR3 (P22607 472-761 limits assumed, one chain of several): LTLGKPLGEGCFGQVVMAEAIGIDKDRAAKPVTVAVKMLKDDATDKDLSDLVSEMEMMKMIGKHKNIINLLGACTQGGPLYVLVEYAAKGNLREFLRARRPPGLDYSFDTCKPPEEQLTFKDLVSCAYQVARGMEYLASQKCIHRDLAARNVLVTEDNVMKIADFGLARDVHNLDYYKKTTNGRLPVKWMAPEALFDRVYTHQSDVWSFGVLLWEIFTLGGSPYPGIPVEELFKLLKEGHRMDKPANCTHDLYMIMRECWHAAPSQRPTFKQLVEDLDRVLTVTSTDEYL
Chain of Ba/F3-TEL-FGFR2 (P21802 481-770 limits assumed, one chain of several): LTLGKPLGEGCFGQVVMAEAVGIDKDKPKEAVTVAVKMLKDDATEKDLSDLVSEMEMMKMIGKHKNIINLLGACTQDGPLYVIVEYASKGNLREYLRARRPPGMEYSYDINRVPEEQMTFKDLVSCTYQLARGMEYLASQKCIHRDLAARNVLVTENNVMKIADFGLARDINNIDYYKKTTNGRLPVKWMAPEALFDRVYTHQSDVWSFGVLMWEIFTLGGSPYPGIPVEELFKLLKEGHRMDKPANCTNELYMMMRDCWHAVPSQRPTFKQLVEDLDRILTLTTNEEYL
Chain of CYP2C9 (P11712 whole entry): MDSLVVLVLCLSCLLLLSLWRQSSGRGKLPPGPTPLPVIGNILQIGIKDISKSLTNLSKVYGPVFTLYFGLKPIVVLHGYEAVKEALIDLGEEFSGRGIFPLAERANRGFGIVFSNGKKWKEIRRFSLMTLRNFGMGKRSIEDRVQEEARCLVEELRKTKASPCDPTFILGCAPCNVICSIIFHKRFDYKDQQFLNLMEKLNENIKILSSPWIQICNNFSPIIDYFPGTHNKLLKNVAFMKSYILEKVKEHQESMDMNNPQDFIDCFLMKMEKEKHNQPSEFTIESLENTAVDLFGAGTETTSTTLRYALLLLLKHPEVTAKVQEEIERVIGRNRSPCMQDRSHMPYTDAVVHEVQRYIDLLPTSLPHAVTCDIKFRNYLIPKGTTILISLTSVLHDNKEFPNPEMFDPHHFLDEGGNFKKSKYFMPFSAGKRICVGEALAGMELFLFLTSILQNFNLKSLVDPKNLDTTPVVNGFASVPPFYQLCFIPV

Structure (SMILES): C=C(C)C(=O)Nc1ccc(-c2c(-c3ccc(N=S4(=O)CCCCC4)cc3)c3c(N)ncnc3n2C)cc1 [Compound 4, N-(4-(4-amino-7-methyl-5-(4-(1-oxotetrahydro-2H-1λ^6-thiopyran-1-imino)phenyl) -7H-pyrrolo [2,3-d]pyrimidin-6-yl)phenyl) methacrylamide]
CLint scaled at 1 µM [1]: 14.6 mL/min/kg
half-life at 1 µM [1]: 85.6 min
Remaining percentage of compound after 60 min of incubation (%) ([1]; 60 min): 61.6%
IC50 (Ba/F3-TEL-FGFR2): 9.9 nM
IC50 (Ba/F3-TEL-FGFR1): 2370 nM
IC50 (Ba/F3-TEL-FGFR3): 3360 nM

IC50 (CYP2D6): 24600 nM
IC50 (CYP3A4): 13500 nM
Structure (SMILES): C=C(C)C(=O)Nc1ccc(-c2c(-c3ccc(N=S(=O)(CC)CC)c(F)c3)c3c(N)ncnc3n2C)cc1 [Compound 9, N-(4-(4-amino-5-(4-(diethyl (oxo) 1 λ^6-sulfanylidene) -3-fluorophenyl) -7-methyl 7H-pyrrolo [2,3-d]pyrimidin-6-yl) - phenyl) methacrylamide]
IC50 (Ba/F3-TEL-FGFR2): 14.9 nM

Remaining percentage of compound after 60 min of incubation (%) [2]: 24.45%
hepatocyte CLint at 1 µM ([2]; rat liver cells (cryopreserved hepatocytes in suspension), read-out: in vitro CLint (µL/min/10^6 cells)): 48.4 µL/min/1e6 cells
half-life at 1 µM ([2]; rat liver cells (cryopreserved hepatocytes in suspension), read-out: in vitro t1/2): 28.6 min
IC50 (SNU16 cells): 2.4 nM
Structure (SMILES): C=C(C)C(=O)Nc1ccc(-c2c(-c3ccc(N=S4(=O)CCCC4)c(F)c3)c3c(N)ncnc3n2C)c(F)c1 [Compound 23, N-(4-(4-amino-5-(3-fluoro-4-((1-oxotetrahydro-1 λ^6-thiophene-1-ylidene)amino)phenyl) -7-methyl-7H-pyrrolo [2,3-d]pyrimidin-6-yl) -3-fluorophenyl) methacrylamide]
IC50 (A204 cells): 618 nM
IC50 (Ba/F3-TEL-FGFR2): 0.7 nM
IC50 (Ba/F3-TEL-FGFR1): 568 nM

AUC(0-t) ([3]; male, SD): 778 ng·h/mL
Cmax ([3]; male, SD): 306 ng/mL
Tmax ([3]; male, SD): 25.2 min
half-life ([3]; male, SD): 79.2 min
IC50 (CYP2D6): 9520 nM
IC50 (CYP3A4): 19200 nM
Structure (SMILES): C=C(C)C(=O)Nc1ccc(-c2c(-c3ccc(N=S4(=O)CCCC4)c(F)c3)c3c(N)ncnc3n2C)cc1 [Compound 33, N-(4-(4-amino-5-(3-fluoro-4-((1-oxotetrahydro-1 λ^6-thiophene-1-ylidene)amino)phenyl) -7-methyl-7H-pyrrolo [2,3-d]pyrimidin-6-yl)phenyl) methacrylamide]
IC50 (Ba/F3-TEL-FGFR2): 11.2 nM
IC50 (Ba/F3-TEL-FGFR1): 2310 nM
IC50 (Ba/F3-TEL-FGFR3): 1290 nM

Structure (SMILES): C=C(C)C(=O)Nc1ccc(-c2c(-c3ccc(N=S4(=O)CCC4)c(F)c3)c3c(N)ncnc3n2C)cc1 [Compound 56]
IC50 (CYP2D6): 5540 nM
IC50 (CYP3A4): 13200 nM
IC50 (Ba/F3-TEL-FGFR2): 12.6 nM

Structure (SMILES): C=C(C)C(=O)Nc1ccc(-c2c(-c3ccc(N=S(=O)(CC)CC)cc3)c3c(N)ncnc3n2C)c(F)c1 [Compound 58]
AUC(0-t) [3]: 1420 ng·h/mL
Cmax [3]: 604 ng/mL
Tmax [3]: 30 min
half-life [3]: 191 min
IC50 (A204 cells): 1270 nM
IC50 (SNU16 cells): 9.52 nM
IC50 (CYP1A2): > 10000 nM
IC50 (CYP2C9): 29700 nM
IC50 (CYP2C19): 5420 nM
IC50 (CYP2D6): 9810 nM
IC50 (CYP3A4): > 10000 nM
IC50 (Ba/F3-TEL-FGFR2): 3 nM
IC50 (Ba/F3-TEL-FGFR1): 2030 nM
IC50 (Ba/F3-TEL-FGFR3): 442 nM

Structure (SMILES): [2H]C([2H])([2H])n1c(-c2ccc(NC(=O)C(=C)C)cc2F)c(-c2ccc(N=S3(=O)CCCC3)cc2)c2c(N)ncnc21 [Compound 83, N-(4-(4-amino-7-(methyl-d3)-5-(4-(1-oxotetrahydro-1 λ^6-thiophene-1-imino)phenyl)-7H-pyrrolo[2,3-d]pyrimidin-6-yl)-3-fluorophenyl)methacrylamide]
AUC(0-t) [3]: 1480 ng·h/mL
Cmax [3]: 414 ng/mL
Tmax [3]: 19.8 min
half-life [3]: 112 min
hepatocyte CLint ([2]; hepatocytes, read-out: in vitro CLint (µL/min/10^6 cells)): 37.3 µL/min/1e6 cells
half-life ([2]; hepatocytes, read-out: in vitro t1/2): 37.1 min
Remaining percentage of compound after 60 min of incubation (%) [2]: 35.86%
IC50 (CYP1A2): > 10000 nM
IC50 (CYP2C9): 14400 nM
IC50 (CYP2C19): 14100 nM
IC50 (CYP2D6): 8770 nM
IC50 (CYP3A4): 11600 nM
IC50 (Ba/F3-TEL-FGFR2): 1.1 nM
IC50 (Ba/F3-TEL-FGFR1): 661 nM
IC50 (Ba/F3-TEL-FGFR3): 319 nM
